Where “and” joins values, the source holds several entries; their conditions need not be identical. Equal values may be shown once. ± gives the expanded uncertainty stated by the source.
What was measured:
[1] = xn = mol fraction of the nth substance listed; settings: 101 kPa, Liquid; for speed of sound: Linear variable-path acoustic interferometer; for mass density: Pycnometric method
[2] = 101 kPa, Liquid; for speed of sound: Linear variable-path acoustic interferometer; for mass density: Pycnometric method

## Cc1cccc(N)c1 [3-methylaniline] + C1CCOC1
[1]; 303.15 K, x2 = 0
  speed of sound: 1567 ± 3 m/s
  mass density: 980.8 ± 0.3 kg/m3
[1]; 303.15 K, x2 = 0.0864
  speed of sound: 1544 ± 3 m/s
  mass density: 975.3 ± 0.3 kg/m3
[1]; 303.15 K, x2 = 0.1853
  speed of sound: 1522 ± 3 m/s
  mass density: 969.2 ± 0.3 kg/m3
[1]; 303.15 K, x2 = 0.2831
  speed of sound: 1497 ± 3 m/s
  mass density: 963 ± 0.3 kg/m3
[1]; 303.15 K, x2 = 0.3776
  speed of sound: 1472 ± 3 m/s
  mass density: 956.4 ± 0.3 kg/m3
[1]; 303.15 K, x2 = 0.4693
  speed of sound: 1447 ± 3 m/s
  mass density: 949 ± 0.3 kg/m3
[1]; 303.15 K, x2 = 0.5689
  speed of sound: 1416 ± 3 m/s
  mass density: 939.3 ± 0.3 kg/m3
[1]; 303.15 K, x2 = 0.6803
  speed of sound: 1378 ± 3 m/s
  mass density: 926.2 ± 0.3 kg/m3
[1]; 303.15 K, x2 = 0.7808
  speed of sound: 1341 ± 3 m/s
  mass density: 912.4 ± 0.3 kg/m3
[1]; 303.15 K, x2 = 0.8886
  speed of sound: 1300 ± 2 m/s
  mass density: 895.6 ± 0.3 kg/m3
[1]; 313.15 K, x2 = 0
  speed of sound: 1533 ± 3 m/s
  mass density: 972.7 ± 0.4 kg/m3
[1]; 313.15 K, x2 = 0.0864
  speed of sound: 1513 ± 3 m/s
  mass density: 968 ± 0.4 kg/m3
[1]; 313.15 K, x2 = 0.1853
  speed of sound: 1488 ± 3 m/s
  mass density: 962.6 ± 0.4 kg/m3
[1]; 313.15 K, x2 = 0.2831
  speed of sound: 1463 ± 3 m/s
  mass density: 956.4 ± 0.4 kg/m3
[1]; 313.15 K, x2 = 0.3776
  speed of sound: 1436 ± 3 m/s
  mass density: 949.7 ± 0.4 kg/m3
[1]; 313.15 K, x2 = 0.4693
  speed of sound: 1409 ± 3 m/s
  mass density: 942 ± 0.4 kg/m3
[1]; 313.15 K, x2 = 0.5689
  speed of sound: 1375 ± 3 m/s
  mass density: 931.9 ± 0.4 kg/m3
[1]; 313.15 K, x2 = 0.6803
  speed of sound: 1338 ± 3 m/s
  mass density: 918.4 ± 0.3 kg/m3
[1]; 313.15 K, x2 = 0.7808
  speed of sound: 1300 ± 2 m/s
  mass density: 904.3 ± 0.3 kg/m3
[1]; 313.15 K, x2 = 0.8886
  speed of sound: 1255 ± 2 m/s
  mass density: 886.8 ± 0.3 kg/m3
[1]; 323.15 K, x2 = 0
  speed of sound: 1492 ± 3 m/s
  mass density: 964.6 ± 0.4 kg/m3
[1]; 323.15 K, x2 = 0.0864
  speed of sound: 1474 ± 3 m/s
  mass density: 960.1 ± 0.4 kg/m3
[1]; 323.15 K, x2 = 0.1853
  speed of sound: 1451 ± 3 m/s
  mass density: 955 ± 0.4 kg/m3
[1]; 323.15 K, x2 = 0.2831
  speed of sound: 1425 ± 3 m/s
  mass density: 948.9 ± 0.4 kg/m3
[1]; 323.15 K, x2 = 0.3776
  speed of sound: 1398 ± 3 m/s
  mass density: 941.9 ± 0.4 kg/m3
[1]; 323.15 K, x2 = 0.4693
  speed of sound: 1372 ± 3 m/s
  mass density: 933.9 ± 0.4 kg/m3
[1]; 323.15 K, x2 = 0.5689
  speed of sound: 1339 ± 3 m/s
  mass density: 923.6 ± 0.4 kg/m3
[1]; 323.15 K, x2 = 0.6803
  speed of sound: 1301 ± 2 m/s
  mass density: 909.8 ± 0.4 kg/m3
[1]; 323.15 K, x2 = 0.7808
  speed of sound: 1261 ± 2 m/s
  mass density: 895.3 ± 0.4 kg/m3
[1]; 323.15 K, x2 = 0.8886
  speed of sound: 1217 ± 2 m/s
  mass density: 877.2 ± 0.4 kg/m3

## Cc1cccc(N)c1 [3-methylaniline] + CC(C)OC(C)C
[1]; 303.15 K, x2 = 0
  speed of sound: 1567 ± 3 m/s
  mass density: 980.8 ± 0.3 kg/m3
[1]; 303.15 K, x2 = 0.0743
  speed of sound: 1515 ± 3 m/s
  mass density: 961 ± 0.3 kg/m3
[1]; 303.15 K, x2 = 0.1546
  speed of sound: 1462 ± 3 m/s
  mass density: 939.9 ± 0.3 kg/m3
[1]; 303.15 K, x2 = 0.2421
  speed of sound: 1404 ± 3 m/s
  mass density: 917.2 ± 0.3 kg/m3
[1]; 303.15 K, x2 = 0.3279
  speed of sound: 1350 ± 3 m/s
  mass density: 894.6 ± 0.3 kg/m3
[1]; 303.15 K, x2 = 0.4275
  speed of sound: 1289 ± 2 m/s
  mass density: 868 ± 0.3 kg/m3
[1]; 303.15 K, x2 = 0.53
  speed of sound: 1230 ± 2 m/s
  mass density: 840 ± 0.3 kg/m3
[1]; 303.15 K, x2 = 0.6285
  speed of sound: 1175 ± 2 m/s
  mass density: 812.7 ± 0.3 kg/m3
[1]; 303.15 K, x2 = 0.7424
  speed of sound: 1113 ± 2 m/s
  mass density: 781.2 ± 0.3 kg/m3
[1]; 303.15 K, x2 = 0.8651
  speed of sound: 1048 ± 2 m/s
  mass density: 747.8 ± 0.3 kg/m3
[1]; 313.15 K, x2 = 0
  speed of sound: 1533 ± 3 m/s
  mass density: 972.7 ± 0.4 kg/m3
[1]; 313.15 K, x2 = 0.0743
  speed of sound: 1482 ± 3 m/s
  mass density: 954.3 ± 0.4 kg/m3
[1]; 313.15 K, x2 = 0.1546
  speed of sound: 1429 ± 3 m/s
  mass density: 934 ± 0.3 kg/m3
[1]; 313.15 K, x2 = 0.2421
  speed of sound: 1371 ± 3 m/s
  mass density: 911.5 ± 0.3 kg/m3
[1]; 313.15 K, x2 = 0.3279
  speed of sound: 1315 ± 3 m/s
  mass density: 888.9 ± 0.3 kg/m3
[1]; 313.15 K, x2 = 0.4275
  speed of sound: 1254 ± 2 m/s
  mass density: 862.1 ± 0.3 kg/m3
[1]; 313.15 K, x2 = 0.53
  speed of sound: 1193 ± 2 m/s
  mass density: 834 ± 0.3 kg/m3
[1]; 313.15 K, x2 = 0.6285
  speed of sound: 1138 ± 2 m/s
  mass density: 806.4 ± 0.3 kg/m3
[1]; 313.15 K, x2 = 0.7424
  speed of sound: 1075 ± 2 m/s
  mass density: 774.5 ± 0.3 kg/m3
[1]; 313.15 K, x2 = 0.8651
  speed of sound: 1007 ± 2 m/s
  mass density: 740.1 ± 0.3 kg/m3
[1]; 323.15 K, x2 = 0
  speed of sound: 1492 ± 3 m/s
  mass density: 964.6 ± 0.4 kg/m3
[1]; 323.15 K, x2 = 0.0743
  speed of sound: 1443 ± 3 m/s
  mass density: 946.9 ± 0.4 kg/m3
[1]; 323.15 K, x2 = 0.1546
  speed of sound: 1391 ± 3 m/s
  mass density: 927 ± 0.4 kg/m3
[1]; 323.15 K, x2 = 0.2421
  speed of sound: 1334 ± 3 m/s
  mass density: 904.6 ± 0.4 kg/m3
[1]; 323.15 K, x2 = 0.3279
  speed of sound: 1280 ± 2 m/s
  mass density: 881.9 ± 0.4 kg/m3
[1]; 323.15 K, x2 = 0.4275
  speed of sound: 1218 ± 2 m/s
  mass density: 855 ± 0.4 kg/m3
[1]; 323.15 K, x2 = 0.53
  speed of sound: 1158 ± 2 m/s
  mass density: 826.9 ± 0.4 kg/m3
[1]; 323.15 K, x2 = 0.6285
  speed of sound: 1101 ± 2 m/s
  mass density: 799.4 ± 0.3 kg/m3
[1]; 323.15 K, x2 = 0.7424
  speed of sound: 1036 ± 2 m/s
  mass density: 767 ± 0.3 kg/m3
[1]; 323.15 K, x2 = 0.8651
  speed of sound: 966 ± 2 m/s
  mass density: 731.6 ± 0.3 kg/m3

## CC(C)OC(C)C [diisopropyl ether]
[2]; 303.15 K
  speed of sound: 976 ± 2 m/s
  mass density: 712.9 ± 0.3 kg/m3
[2]; 313.15 K
  speed of sound: 932 ± 2 m/s
  mass density: 702.5 ± 0.3 kg/m3 and 702.9 ± 0.3 kg/m3
[2]; 323.15 K
  speed of sound: 889 ± 2 m/s
  mass density: 691.9 ± 0.3 kg/m3

## CC(C)OC(C)C [diisopropyl ether] + Cc1cccc(N)c1
[1]; 303.15 K, x1 = 1
  speed of sound: 976 ± 2 m/s
  mass density: 712.9 ± 0.3 kg/m3
[1]; 313.15 K, x1 = 1
  speed of sound: 932 ± 2 m/s
  mass density: 702.9 ± 0.3 kg/m3
[1]; 323.15 K, x1 = 1
  speed of sound: 889 ± 2 m/s
  mass density: 691.9 ± 0.3 kg/m3

## CC(C)OC(C)C [diisopropyl ether] + Cc1ccccc1N
[1]; 303.15 K, x1 = 1
  speed of sound: 976 ± 2 m/s
  mass density: 712.9 ± 0.3 kg/m3
[1]; 313.15 K, x1 = 1
  speed of sound: 932 ± 2 m/s
  mass density: 702.5 ± 0.3 kg/m3
[1]; 323.15 K, x1 = 1
  speed of sound: 889 ± 2 m/s
  mass density: 691.9 ± 0.3 kg/m3

## C1CCOC1 [tetrahydrofuran]
[2]; 303.15 K
  speed of sound: 1254 ± 2 m/s
  mass density: 876.9 ± 0.3 kg/m3
[2]; 313.15 K
  speed of sound: 1207 ± 2 m/s
  mass density: 865.7 ± 0.3 kg/m3
[2]; 323.15 K
  speed of sound: 1165 ± 2 m/s
  mass density: 854.8 ± 0.3 kg/m3

## C1CCOC1 [tetrahydrofuran] + Cc1cccc(N)c1
[1]; 303.15 K, x1 = 1
  speed of sound: 1254 ± 2 m/s
  mass density: 876.9 ± 0.3 kg/m3
[1]; 313.15 K, x1 = 1
  speed of sound: 1207 ± 2 m/s
  mass density: 865.7 ± 0.3 kg/m3
[1]; 323.15 K, x1 = 1
  speed of sound: 1165 ± 2 m/s
  mass density: 854.8 ± 0.3 kg/m3

## C1CCOC1 [tetrahydrofuran] + Cc1ccccc1N
[1]; 303.15 K, x1 = 1
  speed of sound: 1254 ± 2 m/s
  mass density: 876.9 ± 0.3 kg/m3
[1]; 313.15 K, x1 = 1
  speed of sound: 1207 ± 2 m/s
  mass density: 865.7 ± 0.3 kg/m3
[1]; 323.15 K, x1 = 1
  speed of sound: 1165 ± 2 m/s
  mass density: 854.8 ± 0.3 kg/m3
